These results are taken from PubChem BioAssay AID248 (DTP/NCI, 2004).

In this experiment the test system is L1210 leukemia ip in BDF1 mice, survival T/C. Description: NCI In Vivo Anticancer Drug Screen. Data for tumor model L1210 Leukemia (intraperitoneal) in B6D2F1 (BDF1) mice. The following applies: endpoint: mean survival time, higher = longer survival. Put shortly:
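Read-out is survival time, reported as the treated-group measurement over the vehicle-control measurement.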

Setting [1] is: dose: 120.0 mg/kg/injection, schedule: Q01DX Z (oral), vehicle: methylcellulose (MC).
[2] abbreviates: dose: 240.0 mg/kg/injection, schedule: Q01DX Z (oral), vehicle: methylcellulose (MC).
Setting [3] is: dose: 480.0 mg/kg/injection, schedule: Q01DX Z (oral), vehicle: methylcellulose (MC).
[4] abbreviates: dose: 25.0 mg/kg/injection, schedule: Q01DX009 (ip), vehicle: saline with Tween-80.
The mark [5] stands for this setting: dose: 50.0 mg/kg/injection, schedule: Q01DX009 (ip), vehicle: saline with Tween-80.
The mark [6] stands for this setting: dose: 100.0 mg/kg/injection, schedule: Q04DX003 (ip), vehicle: saline with Tween-80.
[7] abbreviates: dose: 100.0 mg/kg/injection, schedule: Q01DX009 (ip), vehicle: saline with Tween-80.
Setting [8] is: dose: 200.0 mg/kg/injection, schedule: Q04DX003 (ip), vehicle: saline with Tween-80.
Where [9] appears, read: dose: 100.0 mg/kg/injection, schedule: Q04DX003 (ip), vehicle: Klucel (hydroxypropylcellulose) (HPC).
Where [10] appears, read: dose: 200.0 mg/kg/injection, schedule: Q04DX003 (ip), vehicle: Klucel (hydroxypropylcellulose) (HPC).
[11] abbreviates: dose: 400.0 mg/kg/injection, schedule: Q04DX003 (ip), vehicle: Klucel (hydroxypropylcellulose) (HPC).
[12] abbreviates: dose: 100.0 mg/kg/injection, schedule: Q01DX001 (ip), vehicle: saline.
[13] abbreviates: dose: 200.0 mg/kg/injection, schedule: Q01DX001 (ip), vehicle: saline.
The mark [14] stands for this setting: dose: 400.0 mg/kg/injection, schedule: Q01DX001 (ip), vehicle: saline.

Where “and” joins values, the source holds several entries; their conditions need not be identical. Identical values can stand only once. Inconclusive results and toxic doses are left out.

Consider `CN=C(NC)N/N=C(C)\C=N\NC(=NC)NC`, for which the T/C (dose: 1.0 mg/kg/injection, schedule: Q01DX Z (ip), vehicle: methylcellulose (MC)) was 103 % of control; the T/C (dose: 2.0 mg/kg/injection, schedule: Q01DX Z (ip), vehicle: methylcellulose (MC)) is 92 % of control; the T/C (dose: 4.0 mg/kg/injection, schedule: Q01DX Z (ip), vehicle: methylcellulose (MC)) was 101 % of control; the T/C (dose: 8.0 mg/kg/injection, schedule: Q01DX Z (ip), vehicle: methylcellulose (MC)) is 104 % of control; the T/C (dose: 15.0 mg/kg/injection, schedule: Q01DX Z (ip), vehicle: saline) is 107 % of control; the T/C (dose: 15.0 mg/kg/injection, schedule: Q01DX Z (oral), vehicle: methylcellulose (MC)) was 104 % of control. The T/C (dose: 30.0 mg/kg/injection, schedule: Q01DX Z (ip), vehicle: methylcellulose (MC)) is 160 % of control; the T/C (dose: 30.0 mg/kg/injection, schedule: Q01DX Z (ip), vehicle: saline) is 97 % of control; the T/C (dose: 30.0 mg/kg/injection, schedule: Q01DX Z (oral), vehicle: methylcellulose (MC)) is 96 % of control; the T/C (dose: 60.0 mg/kg/injection, schedule: Q01DX Z (ip), vehicle: saline) is 103 % of control; the T/C (dose: 60.0 mg/kg/injection, schedule: Q01DX Z (oral), vehicle: methylcellulose (MC)) is 107 % of control; the T/C (dose: 120.0 mg/kg/injection, schedule: Q01DX Z (ip), vehicle: saline) was 96 % of control. The T/C reads like this: under setting [1], 104 % of control; (dose: 240.0 mg/kg/injection, schedule: Q01DX Z (ip), vehicle: saline) 100 % of control; under setting [2], 95 % of control; (dose: 480.0 mg/kg/injection, schedule: Q01DX009 (oral), vehicle: saline) 94 % of control; under setting [3], 96 % of control; (dose: 960.0 mg/kg/injection, schedule: Q01DX009 (oral), vehicle: saline) 94 % of control.
For `COC(=O)C(CCCCN=Cc1ccccc1O)N=Cc1ccccc1O.[Cu]` (centres undefined), the T/C by setting is: (dose: 6.25 mg/kg/injection, schedule: Q01DX009 (ip), vehicle: saline with Tween-80) 96 % of control; (dose: 12.5 mg/kg/injection, schedule: Q01DX009 (ip), vehicle: saline with Tween-80) 93 % of control; under setting [4], 96 % of control and 98 % of control; under setting [5], 103 % of control; under setting [6], 96 % of control.
Regarding `CCCN(CCC)/N=N/c1nc[nH]c1C(N)=O`, the T/C runs as follows: (dose: 100.0 mg/kg/injection, schedule: Q01DX001 (ip), vehicle: saline with Tween-80) 95 % of control; under setting [7], 97 % of control; under setting [6], 101 % of control; (dose: 200.0 mg/kg/injection, schedule: Q01DX001 (ip), vehicle: saline with Tween-80) 98 % of control; (dose: 200.0 mg/kg/injection, schedule: Q01DX009 (ip), vehicle: saline with Tween-80) 106 % of control; under setting [8], 104 % of control. Besides, the T/C was 113 % of control (dose: 400.0 mg/kg/injection, schedule: Q01DX001 (ip), vehicle: saline with Tween-80) and 112 % of control (dose: 400.0 mg/kg/injection, schedule: Q04DX003 (ip), vehicle: saline with Tween-80).
For `COc1ccc(-c2nc(N)ncc2CSC)cc1`, the T/C was 101 % of control under setting [6] and 86 % of control under setting [8].
`C=C(Br)CNC(=O)NCC`: the T/C was 94 % of control under setting [4], 91 % of control under setting [5], 105 % of control under setting [7] and 97 % of control under setting [6].
Turning to `Cc1ccc(N=CNN=C(N)N)cc1`, the T/C is 97 % of control under setting [1]; 101 % of control (dose: 240.0 mg/kg/injection, schedule: Q01DX Z (ip), vehicle: methylcellulose (MC)); 96 % of control under setting [2]; 104 % of control (dose: 360.0 mg/kg/injection, schedule: Q01DX Z (ip), vehicle: methylcellulose (MC)); 102 % of control (dose: 480.0 mg/kg/injection, schedule: Q01DX Z (ip), vehicle: methylcellulose (MC)); 92 % of control under setting [3].
As for `COc1ccc(N(Cc2ccccc2)c2nn[nH]n2)cc1`, the T/C under setting [9] was 93 % of control, the T/C under setting [10] was 90 % of control and the T/C under setting [11] is 97 % of control.
Turning to `CC[n+]1ccc(/C=C\c2cccc([N+](=O)[O-])c2)cc1`, the T/C is, setting by setting: (dose: 25.0 mg/kg/injection, schedule: Q01DX009 (ip), vehicle: Klucel (hydroxypropylcellulose) (HPC)) 91 % of control; (dose: 50.0 mg/kg/injection, schedule: Q01DX009 (ip), vehicle: Klucel (hydroxypropylcellulose) (HPC)) 91 % of control; (dose: 100.0 mg/kg/injection, schedule: Q01DX009 (ip), vehicle: Klucel (hydroxypropylcellulose) (HPC)) 98 % of control; under setting [9], 93 % of control.
Turning to `CCOC(=O)C1NC(=O)C(C(=O)OCC)C1C(C)C` (centres undefined), the T/C runs as follows: (dose: 75.0 mg/kg/injection, schedule: Q04DX003 (ip), vehicle: Klucel (hydroxypropylcellulose) (HPC)) 102 % of control; (dose: 100.0 mg/kg/injection, schedule: Q01DX001 (ip), vehicle: Klucel (hydroxypropylcellulose) (HPC)) 103 % of control; (dose: 150.0 mg/kg/injection, schedule: Q04DX003 (ip), vehicle: Klucel (hydroxypropylcellulose) (HPC)) 98 % of control; (dose: 200.0 mg/kg/injection, schedule: Q01DX001 (ip), vehicle: Klucel (hydroxypropylcellulose) (HPC)) 103 % of control; (dose: 300.0 mg/kg/injection, schedule: Q04DX003 (ip), vehicle: Klucel (hydroxypropylcellulose) (HPC)) 100 % of control; (dose: 400.0 mg/kg/injection, schedule: Q01DX001 (ip), vehicle: Klucel (hydroxypropylcellulose) (HPC)) 109 % of control.
As for `CCN1CCC2CN(C)CCN2C1=S` (centres undefined), the T/C is 98 % of control (dose: 25.0 mg/kg/injection, schedule: Q04DX003 (ip), vehicle: saline); 105 % of control (dose: 50.0 mg/kg/injection, schedule: Q04DX003 (ip), vehicle: saline); 92 % of control under setting [12]; 94 % of control (dose: 100.0 mg/kg/injection, schedule: Q04DX003 (ip), vehicle: saline).
Turning to `CCOC(=O)c1ccc(NCc2cnc3nc(N)nc(N)c3n2)cc1`, the T/C by setting is: (dose: 3.0 mg/kg/injection, schedule: Q01DX009 (ip), vehicle: other) 106 % of control; (dose: 6.0 mg/kg/injection, schedule: Q01DX009 (ip), vehicle: other) 102 % of control; (dose: 12.0 mg/kg/injection, schedule: Q01DX009 (ip), vehicle: other) 98 % of control; (dose: 24.0 mg/kg/injection, schedule: Q01DX009 (ip), vehicle: other) 98 % of control.
With `Cc1cccc(C[Si](C)C)c1`, the T/C was 95 % of control and 104 % of control under setting [12]; 124 % of control under setting [13]; 93 % of control and 98 % of control under setting [14].
As to `COc1cc2c(cc1O)C(=O)CCCC2`, the T/C reads like this: (dose: 100.0 mg/kg/injection, schedule: Q01DX009 (ip), vehicle: saline sonified) 94 % of control; under setting [9], 94 % of control; (dose: 200.0 mg/kg/injection, schedule: Q01DX009 (ip), vehicle: saline sonified) 103 % of control; under setting [10], 92 % of control; (dose: 400.0 mg/kg/injection, schedule: Q01DX009 (ip), vehicle: saline sonified) 90 % of control; under setting [11], 100 % of control.
Turning to `Cc1ccc(NC(=O)N(C)N)cc1`, the T/C (dose: 75.0 mg/kg/injection, schedule: Q01DX001 (ip), vehicle: carboxymethylcellulose (CMC)) is 102 % of control and the T/C (dose: 150.0 mg/kg/injection, schedule: Q01DX001 (ip), vehicle: carboxymethylcellulose (CMC)) was 104 % of control.
`CCOC(=O)C(C(=O)OCC)c1cccc(Cl)c1`: the T/C was 106 % of control (dose: 50.0 mg/kg/injection, schedule: Q01DX001 (ip), vehicle: saline); 109 % of control under setting [12]; 103 % of control under setting [13]; 103 % of control under setting [14].
